Experimental data reported in ChEMBL document CHEMBL1152219, “Synthesis and use of sulfonamide-, sulfoxide-, or sulfone-containing aminoglycoside-CoA bisubstrates as mechanistic probes for aminoglycoside N-6'-acetyltransferase” (Bioorg Med Chem Lett, 2008).

Test: Inhibition of aminoglycoside N-6'-acetyltransferase Ii

Compound | Ki [nM]
CC(C)(COP(=O)(O)OP(=O)(O)OC[C@H]1O[C@@H](n2cnc3c(N)ncnc32)[C@H](O)[C@@H]1OP(=O)(O)O)[C@@H](O)C(=O)NCCC(=O)NCCSCC(=O)NC[C@H]1O[C@H](O[C@H]2[C@H](O)[C@@H](O)[C@H](N)C[C@@H]2N)[C@H](N)[C@@H](O)[C@@H]1O | 76
CC(C)(COP(=O)(O)OP(=O)(O)OC[C@H]1O[C@@H](n2cnc3c(N)ncnc32)[C@H](O)[C@@H]1OP(=O)(O)O)[C@@H](O)C(=O)NCCC(=O)NCCSCCC(=O)NC[C@H]1O[C@H](O[C@H]2[C@H](O)[C@@H](O)[C@H](N)C[C@@H]2N)[C@H](N)[C@@H](O)[C@@H]1O | 43
CC(C)(COP(=O)(O)OP(=O)(O)OC[C@H]1O[C@@H](n2cnc3c(N)ncnc32)[C@H](O)[C@@H]1OP(=O)(O)O)[C@@H](O)C(=O)NCCC(=O)NCCS(=O)(=O)CC(=O)NC[C@H]1O[C@H](O[C@H]2[C@H](O)[C@@H](O)[C@H](N)C[C@@H]2N)[C@H](N)[C@@H](O)[C@@H]1O | 270
CC(C)(COP(=O)(O)OP(=O)(O)OC[C@H]1O[C@@H](n2cnc3c(N)ncnc32)[C@H](O)[C@@H]1OP(=O)(O)O)[C@@H](O)C(=O)NCCC(=O)NCC[S+]([O-])CC(=O)NC[C@H]1O[C@H](O[C@H]2[C@H](O)[C@@H](O)[C@H](N)C[C@@H]2N)[C@H](N)[C@@H](O)[C@@H]1O (some centres not stated) | 60
CC(C)(COP(=O)(O)OP(=O)(O)OC[C@H]1O[C@@H](n2cnc3c(N)ncnc32)[C@H](O)[C@@H]1OP(=O)(O)O)[C@@H](O)C(=O)NCCC(=O)NCC[S+]([O-])CCC(=O)NC[C@H]1O[C@H](O[C@H]2[C@H](O)[C@@H](O)[C@H](N)C[C@@H]2N)[C@H](N)[C@@H](O)[C@@H]1O (some centres not stated) | 2000

More lines, in order of falling Ki, values ahead:

Ki [nM] | Compound
1600 | CC(C)(COP(=O)(O)OP(=O)(O)OC[C@H]1O[C@@H](n2cnc3c(N)ncnc32)[C@H](O)[C@@H]1OP(=O)(O)O)[C@@H](O)C(=O)NCCC(=O)NCCSCCS(=O)(=O)NC[C@H]1O[C@H](O[C@H]2[C@H](O)[C@@H](O)[C@H](N)C[C@@H]2N)[C@H](N)[C@@H](O)[C@@H]1O
90 | CC(C)(COP(=O)(O)OP(=O)(O)OC[C@H]1O[C@@H](n2cnc3c(N)ncnc32)[C@H](O)[C@@H]1OP(=O)(O)O)[C@@H](O)C(=O)NCCC(=O)NCCS(=O)(=O)CCC(=O)NC[C@H]1O[C@H](O[C@H]2[C@H](O)[C@@H](O)[C@H](N)C[C@@H]2N)[C@H](N)[C@@H](O)[C@@H]1O
